Marks after values point to notes of the source that are not given here.
How the values were obtained:
soybean lipoxygenase = target: T1, soybean lipoxygenase (Glycine max, UniProt P08170); test: Soybean lipoxygenase inhibition study; format: biochemical; details: sodium linoleate 0.1 mM; for LOX % Inhibition at 100 µM / inhibition at 100 µM: compound 100 µM; for inhibition at 100 µM: read-out: LOX % Inhibition at 100 µM
T1 construct: purchased Sigma Chemical, Co
T1 sequence (P08170 1-839): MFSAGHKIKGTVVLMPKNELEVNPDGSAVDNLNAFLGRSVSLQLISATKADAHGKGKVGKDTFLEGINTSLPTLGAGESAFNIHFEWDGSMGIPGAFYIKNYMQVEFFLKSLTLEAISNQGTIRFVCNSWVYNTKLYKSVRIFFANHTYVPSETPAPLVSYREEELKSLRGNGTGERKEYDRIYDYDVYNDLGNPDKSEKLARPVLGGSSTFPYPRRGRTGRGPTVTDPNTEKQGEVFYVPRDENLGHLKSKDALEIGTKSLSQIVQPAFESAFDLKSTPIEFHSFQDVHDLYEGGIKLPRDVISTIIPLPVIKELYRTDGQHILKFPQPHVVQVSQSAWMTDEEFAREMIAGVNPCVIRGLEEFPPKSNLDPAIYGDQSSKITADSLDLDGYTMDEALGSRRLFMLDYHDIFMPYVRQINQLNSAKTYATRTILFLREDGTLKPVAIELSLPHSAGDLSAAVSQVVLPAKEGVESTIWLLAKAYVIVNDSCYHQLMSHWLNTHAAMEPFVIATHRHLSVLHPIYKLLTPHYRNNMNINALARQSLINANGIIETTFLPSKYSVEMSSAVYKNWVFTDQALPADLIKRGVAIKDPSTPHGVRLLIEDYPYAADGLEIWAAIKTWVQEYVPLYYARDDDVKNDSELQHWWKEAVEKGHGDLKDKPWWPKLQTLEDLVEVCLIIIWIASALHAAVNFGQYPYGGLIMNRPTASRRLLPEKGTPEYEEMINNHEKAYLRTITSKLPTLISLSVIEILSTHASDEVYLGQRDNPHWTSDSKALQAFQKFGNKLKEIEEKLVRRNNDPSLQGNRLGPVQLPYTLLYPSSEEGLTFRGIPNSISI
Method: Lipoxygenase (LOX) is the key enzyme implicated in membrane lipid peroxidation by forming hydroperoxides, thus it is considered a target for inflammatory diseases. […] For the in vitro study, soybean lipoxygenase was used, based on the homology to mammalian lipoxygenase. […] A stock solution (1% DMSO in the appropriate buffer with the tested compound diluted under sonication) was prepared for the in vitro assays from which several dilutions were made with the appropriate buffer. […] The stock solutions of the compounds were incubated with sodium linoleate (0.1 mM) and 0.2 mL of soybean lipoxygenase solution (1/9 × 10^-4 w/v in saline) at room temperature. In vitro test was performed as previously published.

[1] = tested on: carrageenin-induced rat paw edema; test: Inhibition of the carrageenin-induced rat paw edema; format: in vivo, Fisher 344 rats; details: for CPE % (reduction in the rat paw edema induced by carrageenin): 0.0057 mmol/Kg body weight, intraperitoneally, 3.5 h after carrageenin; for anti-inflammatory activity in carrageenin-induced rat paw edema (in words): intraperitoneal administration
From the text: The carrageenin-induced rat paw edema assay was used, as a model of acute inflammation. Inflammation induced by carrageenan is acute, non-immune, well-researched, and highly reproducible, and is described as a biphasic event. Cardinal signs of inflammation—edema, hyperalgesia, and erythema, are developed immediately following subcutaneous injection, resulting from the action of pro-inflammatory agents: bradykinin, histamine, tachykinins, complement reactive oxygen and nitrogen species. It is known that NSAIDs act during the second phase of prostaglandin release, presenting weak activity in the first phase of histamine and serotonin release.
The animals (Fisher 344 rats), were housed under standard conditions, and received a diet of commercial food pellets and water ad libitum during the maintenance, but were entirely fasted during the experiment period. Both sexes were used, while pregnant females were excluded. Each group was composed of 6–15 animals. Our studies were in accordance with recognized guidelines on animal experimentation (guidelines for the care and use of laboratory animals published by the Greek Government 160/1991, based on EU regulations 86/609). Rats were kept in the Centre of the School of Veterinary Medicine (EL54 BIO42), Aristotle University of Thessaloniki, which is registered by the official state veterinary authorities (presidential degree 56/2013, in harmony with the European Directive 2010/63/EEC). The experimental protocols were approved by the Animal Ethics Committee of the Prefecture of Central Macedonia.
Carrageenin in water as an intradermal injection of 0.1 mL 2% was used for the induction of the edema in the right hind paw of the rats, according to the previously reported method. Animals were divided in five-membered groups and the tested compounds were suspended in water (0.0057 mmol/kg body weight), with a few drops of Tween 80, ground in a mortar before administered intraperitoneally simultaneously. The rats were euthanized 3.5 h after carrageenin injection. Comparison of the change in paw weight with that in control animals (treated with water) was expressed as a percent inhibition of the oedema CPE% values using indomethacin (IMA) as a reference compound. Values CPE% are the mean from two different experiments with a standard error of the mean less than 10% (Table 5). Student’s T test was applied.

[2] = tested on: acetic acid-induced writhing; test: Anti-nociception writhing test (acetic acid); format: in vivo, Fisher 344 rats; details: 0.0057 mmol/kg body weight i.p., 0.6% acetic acid after 30 min
From the text: The acetic acid-induced writhing test is a quick, simple and reproducible method, despite the fact that it lacks specialization. […] The animals (Fisher 344 rats), were housed under standard conditions, and received a diet of commercial food pellets and water ad libitum during the maintenance, but were entirely fasted during the experiment period. Both sexes were used, while pregnant females were excluded. Each group was composed of 6–15 animals. Our studies were in accordance with recognized guidelines on animal experimentation (guidelines for the care and use of laboratory animals published by the Greek Government 160/1991, based on EU regulations 86/609). Rats were kept in the Centre of the School of Veterinary Medicine (EL54 BIO42), Aristotle University of Thessaloniki, which is registered by the official state veterinary authorities (presidential degree 56/2013, in harmony with the European Directive 2010/63/EEC). The experimental protocols were approved by the Animal Ethics Committee of the Prefecture of Central Macedonia. For the study of the analgesic activity of the tested compounds, pain is provoked with acetic acid. Animals were divided in three five-membered groups, according to our reported method. After treatment with the tested compounds (0.0057 mmol/kg body weight; intraperitoneally) in the first group, the second group was used as a positive control (aspirin; 0.0057 mmol/kg body weight i.p.) and the third group served as the control in which saline was administered (negative control). After 30 min, 0.6% acetic acid (1 mL/kg body weight) was injected i.p. The number of writhes was recorded for each animal every 5 min during a subsequent 30 min period (Table 6).

Row | Compound | LOX % Inhibition at 100 µM (soybean lipoxygenase) [%] | CPE % (reduction in the rat paw edema induced by carrageenin) [1] | anti-inflammatory activity in carrageenin-induced rat paw edema (in words) [1] | Writhing Inhibition (%) [2] | inhibition at 100 µM (soybean lipoxygenase) [%] | IC50 (soybean lipoxygenase; soybean lipoxygenase, read-out: LOX IC50) [µM]
1 | 1-(5-(4-((4-bromobenzyl)oxy)phenyl)-3-(thiophen-2-yl)-1H-pyrazol-1-yl)ethan-1-one [Compound 2c] | 42 | 38.0 * % | medium activity |  |  | 
2 | 5-(4-((4-bromobenzyl)oxy)phenyl)-3-(4-chlorophenyl)-4,5-dihydro-1H-pyrazole [Compound 2e] | 16 | 56.0 ** % | highest anti-inflammatory activity | 66.1 * % |  | 
3 | c1ccc(C2=NNC(c3cccc4ccccc34)C2)cc1 (stereo not drawn) [Compound 2a, 5-(naphthalen-1-yl)-3-phenyl-4,5-dihydro-1H-pyrazole] |  | no | inactive |  | 35 | 
4 | Clc1ccc(C2=NNC(c3ccc4[nH]ccc4c3)C2)cc1 (stereo not drawn) [Compound 2b, 5-(3-(4-chlorophenyl)-4,5-dihydro-1H-pyrazol-5-yl)-1H-indole] |  | 27.0 * % | medium activity |  | 17 | 
5 | Brc1ccc(COc2ccc(C3CC(c4ccccc4)=NN3)cc2)cc1 (stereo not drawn) [Compound 2d, 5-(4-((4-bromobenzyl)oxy)phenyl)-3-phenyl-4,5-dihydro-1H-pyrazole] |  | 63.0 ** % | highest anti-inflammatory activity | 54.2 * % | 13 | 
6 | CC(=O)n1nc(-c2ccccc2)cc1-c1ccc2[nH]ccc2c1 [Compound 2f, 1-(5-(1H-indol-5-yl)-3-phenyl-1H-pyrazol-1-yl)ethan-1-one] |  | 30.0 * % | medium activity |  | 3 | 
7 | CC(=O)n1nc(-c2ccc(Cl)cc2)cc1-c1cccc2ccccc12 [Compound 2g, 1-(3-(4-chlorophenyl)-5-(naphthalen-1-yl)-1H-pyrazol-1-yl)ethan-1-one] |  | 33.0 * % | medium activity |  | 60 | 80
8 | CC(=O)n1nc(-c2ccccc2)cc1-c1cccc(Oc2ccccc2)c1 [Compound 2h, 1-(5-(3-phenoxyphenyl)-3-phenyl-1H-pyrazol-1-yl)ethan-1-one] |  | 16.0 * % | low activity |  | 26 | 

Reference: publication PMC8201324, “Pyrazoles and Pyrazolines as Anti-Inflammatory Agents” (Molecules, 2021)
